In ChEMBL document CHEMBL4229455, “Synthesis and anticancer activity of novel bisindolylhydroxymaleimide derivatives with potent GSK-3 kinase inhibition” (Bioorg Med Chem, 2018):

How the values were obtained:
CDK9/cyclin T1 = CDK9/cyclin T1 (Homo sapiens, UniProt P50750); assay: Inhibition of recombinant full length human CDK9/cyclin T expressed in baculovirus infected Sf9 insect cells using YSPTSPSYSPTSPSYSPTSPSKKKK as substrate in presence of [gamma-33P]ATP
MOLT-4 = assay: Cytotoxicity against human MOLT4 cells assessed as cell growth at 10 uM after 48 hrs by SRB assay relative to control; format: functional; conditions: MOLT-4, 48 h, read-out: Activity
[1] = molecular target: Glycogen synthase kinase-3 (Sus scrofa) (UniProt B2LUN4+I6LNT8); assay: Inhibition of domestic porcine brain full length GSK-3alpha/beta assessed as residual activity at 10 uM using GS-1 as substrate in presence of [gamma-33P]ATP; conditions: Sus scrofa domesticus
SR = assay: Cytotoxicity against human SR cells assessed as cell growth at 10 uM after 48 hrs by SRB assay relative to control; format: functional; conditions: read-out: Activity
MDA-MB-435 = assay: Cytotoxicity against human MDA-MB-435 cells assessed as cell growth at 10 uM after 48 hrs by SRB assay relative to control; format: functional; conditions: MDA-MB-435, 48 h, read-out: Activity
HOP-62 = assay: Cytotoxicity against human HOP62 cells assessed as cell growth at 10 uM after 48 hrs by SRB assay relative to control; format: functional; conditions: HOP-62, 48 h, read-out: Activity
RPMI-8226 = assay: Cytotoxicity against human RPMI8226 cells assessed as cell growth at 10 uM after 48 hrs by SRB assay relative to control; format: functional; conditions: RPMI-8226, 48 h, read-out: Activity
OVCAR-4 = assay: Cytotoxicity against human OVCAR4 cells assessed as cell growth at 10 uM after 48 hrs by SRB assay relative to control; format: functional; conditions: OVCAR-4, 48 h, read-out: Activity
OVCAR-8 = assay: Cytotoxicity against human OVCAR8 cells assessed as cell growth at 10 uM after 48 hrs by SRB assay relative to control; format: functional; conditions: OVCAR-8, 48 h, read-out: Activity
TK-10 = assay: Cytotoxicity against human TK10 cells assessed as cell growth at 10 uM after 48 hrs by SRB assay relative to control; format: functional; conditions: TK-10, 48 h, read-out: Activity
MCF7 = assay: Cytotoxicity against human MCF7 cells assessed as cell growth at 10 uM after 48 hrs by SRB assay relative to control; format: functional; conditions: MCF7, 48 h, read-out: Activity
A549 = assay: Cytotoxicity against human A549 cells assessed as cell growth at 10 uM after 48 hrs by SRB assay relative to control; format: functional; conditions: A549, 48 h, read-out: Activity
SK-OV-3 = assay: Cytotoxicity against human SKOV3 cells assessed as cell growth at 10 uM after 48 hrs by SRB assay relative to control; format: functional; conditions: SK-OV-3, 48 h, read-out: Activity
[2] = molecular target: Receptor-interacting serine/threonine-protein kinase 3 (Homo sapiens, UniProt Q9Y572); assay: Inhibition of recombinant full length human RIPK3 expressed in baculovirus infected Sf9 insect cells assessed as residual activity at 10 uM using MBP as substrate in presence of [gamma-33P]ATP
NCI-H322M = assay: Cytotoxicity against human NCI-H322M cells assessed as cell growth at 10 uM after 48 hrs by SRB assay relative to control; format: functional; conditions: read-out: Activity
UACC-62 = assay: Cytotoxicity against human UACC62 cells assessed as cell growth at 10 uM after 48 hrs by SRB assay relative to control; format: functional; conditions: UACC-62, 48 h, read-out: Activity
Hs-578T = assay: Cytotoxicity against human Hs 578T cells assessed as cell growth at 10 uM after 48 hrs by SRB assay relative to control; format: functional; conditions: read-out: Activity
CAKI-1 = assay: Cytotoxicity against human Caki1 cells assessed as cell growth at 10 uM after 48 hrs by SRB assay relative to control; format: functional; conditions: CAKI-1, 48 h, read-out: Activity
HL-60(TB) = assay: Cytotoxicity against human HL-60(TB) cells assessed as cell growth at 10 uM after 48 hrs by SRB assay relative to control; format: functional; conditions: HL-60, 48 h, read-out: Activity
HOP-92 = assay: Cytotoxicity against human HOP92 cells assessed as cell growth at 10 uM after 48 hrs by SRB assay relative to control; format: functional; conditions: HOP-92, 48 h, read-out: Activity
[3] = molecular target: Glycogen synthase kinase-3 (Sus scrofa, UniProt B2LUN4+I6LNT8); assay: Inhibition of domestic porcine brain full length GSK-3alpha/beta using GS-1 as substrate in presence of [gamma-33P]ATP; parameters: species or system Sus scrofa domesticus
[4] = molecular target: T1, Serine/threonine-protein kinase haspin (Homo sapiens, UniProt Q8TF76); assay: Inhibition of recombinant human haspin kinase domain expressed in bacteria using histone H3 (1 to 21 residues) peptide as substrate in presence of [gamma-33P]ATP
T1 sequence (Q8TF76 whole entry): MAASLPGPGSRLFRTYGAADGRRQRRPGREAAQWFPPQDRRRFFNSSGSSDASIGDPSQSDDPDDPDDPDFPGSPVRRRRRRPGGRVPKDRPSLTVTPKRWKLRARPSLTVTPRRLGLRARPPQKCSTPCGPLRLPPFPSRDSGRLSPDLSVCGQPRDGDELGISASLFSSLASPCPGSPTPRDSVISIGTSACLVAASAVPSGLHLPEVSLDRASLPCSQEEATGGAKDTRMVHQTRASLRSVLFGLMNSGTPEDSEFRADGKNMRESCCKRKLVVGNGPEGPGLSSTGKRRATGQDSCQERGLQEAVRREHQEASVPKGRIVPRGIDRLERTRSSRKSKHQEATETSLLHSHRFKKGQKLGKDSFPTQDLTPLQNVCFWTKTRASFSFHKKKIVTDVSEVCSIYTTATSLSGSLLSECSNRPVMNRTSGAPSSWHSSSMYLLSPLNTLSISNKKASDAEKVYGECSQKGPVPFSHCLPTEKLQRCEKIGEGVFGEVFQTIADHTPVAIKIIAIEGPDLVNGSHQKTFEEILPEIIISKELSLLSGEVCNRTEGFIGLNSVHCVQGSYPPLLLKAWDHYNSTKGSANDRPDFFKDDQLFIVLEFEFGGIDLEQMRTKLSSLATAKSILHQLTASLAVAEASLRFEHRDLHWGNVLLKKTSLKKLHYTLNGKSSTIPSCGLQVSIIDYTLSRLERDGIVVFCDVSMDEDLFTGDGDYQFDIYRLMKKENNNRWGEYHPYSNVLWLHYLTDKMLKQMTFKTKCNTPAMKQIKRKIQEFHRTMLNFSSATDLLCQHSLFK

NCI-H522 = assay: Cytotoxicity against human NCI-H522 cells assessed as cell growth at 10 uM after 48 hrs by SRB assay relative to control; format: functional; conditions: NCI-H522, 48 h, read-out: Activity
[5] = molecular target: Cyclin-dependent kinase 5/CDK5 activator 1 (Homo sapiens, UniProt Q00535); assay: Inhibition of recombinant full length human CDK5/p25 expressed in bacteria using histone H1 as substrate in presence of [gamma-33P]ATP
Aurora kinase B = Aurora kinase B (Homo sapiens, UniProt Q96GD4); assay: Inhibition of recombinant full length human aurora B expressed in baculovirus infected Sf9 insect cells using MBP as substrate in presence of [gamma-33P]ATP
Chain of Aurora kinase B (Q96GD4 whole entry): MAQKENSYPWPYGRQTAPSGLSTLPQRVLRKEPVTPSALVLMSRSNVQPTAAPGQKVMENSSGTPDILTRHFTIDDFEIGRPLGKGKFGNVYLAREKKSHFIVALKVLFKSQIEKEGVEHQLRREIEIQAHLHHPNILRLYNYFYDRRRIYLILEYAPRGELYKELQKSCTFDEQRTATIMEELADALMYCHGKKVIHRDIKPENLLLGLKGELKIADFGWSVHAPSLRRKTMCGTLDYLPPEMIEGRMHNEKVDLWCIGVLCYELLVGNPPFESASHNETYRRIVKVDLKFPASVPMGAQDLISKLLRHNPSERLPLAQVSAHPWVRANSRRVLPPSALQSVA

Chain of Receptor-interacting serine/threonine-protein kinase 3 (Q9Y572 whole entry, looked up): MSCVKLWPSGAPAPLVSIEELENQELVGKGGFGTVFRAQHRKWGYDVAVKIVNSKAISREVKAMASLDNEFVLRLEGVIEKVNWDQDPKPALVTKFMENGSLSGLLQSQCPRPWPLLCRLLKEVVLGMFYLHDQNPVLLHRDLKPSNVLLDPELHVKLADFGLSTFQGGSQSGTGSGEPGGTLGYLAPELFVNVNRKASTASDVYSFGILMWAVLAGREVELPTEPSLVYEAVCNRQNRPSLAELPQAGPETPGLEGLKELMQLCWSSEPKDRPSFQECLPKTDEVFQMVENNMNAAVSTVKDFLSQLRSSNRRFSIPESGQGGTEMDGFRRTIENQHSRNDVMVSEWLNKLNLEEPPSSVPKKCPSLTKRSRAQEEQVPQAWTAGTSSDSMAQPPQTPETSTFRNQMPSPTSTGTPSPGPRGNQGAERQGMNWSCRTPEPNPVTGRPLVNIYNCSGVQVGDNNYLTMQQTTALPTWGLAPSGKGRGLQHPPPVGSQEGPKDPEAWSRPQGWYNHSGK
Chain of CDK9/cyclin T1 (O60563 whole entry): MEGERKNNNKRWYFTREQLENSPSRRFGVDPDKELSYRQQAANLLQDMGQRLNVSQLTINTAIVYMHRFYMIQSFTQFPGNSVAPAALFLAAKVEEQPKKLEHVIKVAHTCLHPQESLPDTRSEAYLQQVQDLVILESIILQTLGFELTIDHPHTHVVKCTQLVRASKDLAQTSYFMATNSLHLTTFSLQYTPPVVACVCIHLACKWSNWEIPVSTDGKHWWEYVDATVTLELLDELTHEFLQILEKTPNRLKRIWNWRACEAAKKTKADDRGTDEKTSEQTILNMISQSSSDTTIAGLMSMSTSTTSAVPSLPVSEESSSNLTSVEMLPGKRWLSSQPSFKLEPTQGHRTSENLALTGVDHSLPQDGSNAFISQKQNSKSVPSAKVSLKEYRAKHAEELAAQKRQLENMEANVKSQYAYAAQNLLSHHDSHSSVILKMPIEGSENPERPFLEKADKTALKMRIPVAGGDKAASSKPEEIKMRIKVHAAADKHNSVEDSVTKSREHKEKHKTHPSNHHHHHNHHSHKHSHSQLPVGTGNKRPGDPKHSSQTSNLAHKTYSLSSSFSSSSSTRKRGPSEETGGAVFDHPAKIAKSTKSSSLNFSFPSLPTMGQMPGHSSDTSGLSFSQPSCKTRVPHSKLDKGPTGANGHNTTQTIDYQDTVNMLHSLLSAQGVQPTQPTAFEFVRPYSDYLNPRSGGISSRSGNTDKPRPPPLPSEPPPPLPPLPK
Chain of CDK9/cyclin T1 (P50750 whole entry): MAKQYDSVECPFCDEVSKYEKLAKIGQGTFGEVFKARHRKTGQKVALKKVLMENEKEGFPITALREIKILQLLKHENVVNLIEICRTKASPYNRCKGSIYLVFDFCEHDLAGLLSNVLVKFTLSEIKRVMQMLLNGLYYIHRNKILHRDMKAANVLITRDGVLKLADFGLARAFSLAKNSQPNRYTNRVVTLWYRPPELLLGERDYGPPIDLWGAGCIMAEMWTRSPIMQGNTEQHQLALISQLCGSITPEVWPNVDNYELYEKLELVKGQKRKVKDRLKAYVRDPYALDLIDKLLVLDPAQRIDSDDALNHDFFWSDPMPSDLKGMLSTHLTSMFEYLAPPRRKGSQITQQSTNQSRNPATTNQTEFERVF
Chain of Cyclin-dependent kinase 5/CDK5 activator 1 (Q00535 whole entry): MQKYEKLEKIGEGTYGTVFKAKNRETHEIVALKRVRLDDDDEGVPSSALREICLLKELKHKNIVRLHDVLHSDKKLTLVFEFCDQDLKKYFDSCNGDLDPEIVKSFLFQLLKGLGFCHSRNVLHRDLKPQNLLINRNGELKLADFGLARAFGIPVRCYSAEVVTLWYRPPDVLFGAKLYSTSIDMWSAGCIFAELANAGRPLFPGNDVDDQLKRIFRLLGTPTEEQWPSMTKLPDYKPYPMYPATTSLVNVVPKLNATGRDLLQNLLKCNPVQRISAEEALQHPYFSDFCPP
Chain of Cyclin-dependent kinase 5/CDK5 activator 1 (Q15078 whole entry, further chain): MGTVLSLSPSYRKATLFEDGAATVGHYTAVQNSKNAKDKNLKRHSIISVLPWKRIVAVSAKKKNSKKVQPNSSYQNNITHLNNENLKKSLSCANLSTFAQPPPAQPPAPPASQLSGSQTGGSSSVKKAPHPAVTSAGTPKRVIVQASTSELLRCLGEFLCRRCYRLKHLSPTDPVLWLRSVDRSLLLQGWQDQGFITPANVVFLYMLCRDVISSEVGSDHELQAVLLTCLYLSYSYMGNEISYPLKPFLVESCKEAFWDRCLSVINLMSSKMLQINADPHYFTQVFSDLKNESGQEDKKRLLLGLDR

Q: With Cn1cc(C2=C(c3cn(CCCCCC(=O)O)c4ccccc34)C(=O)N(O)C2=O)c2ccccc21 as the compound, how does the IC50 (CDK9/cyclin T1) read?
A: 0.7 µM

Q: And the growth at 10 µM (MOLT-4)?
A: 92.6%

Q: What about the Activity [1] of the same compound?
A: 2%

Q: And the growth at 10 µM (SR)?
A: 89.6%

Q: And the growth at 10 µM (MDA-MB-435)?
A: 102%

Q: What about the growth at 10 µM (HOP-62) of the same compound?
A: 92%

Q: What about the growth at 10 µM (RPMI-8226) of the same compound?
A: 96.8%

Q: What about the growth at 10 µM (OVCAR-4) of the same compound?
A: 94.5%

Q: And the growth at 10 µM (OVCAR-8)?
A: 87.7%

Q: And the growth at 10 µM (TK-10)?
A: 107%

Q: And the growth at 10 µM (MCF7)?
A: 90%

Q: And the growth at 10 µM (A549)?
A: 94.6%

Q: What about the growth at 10 µM (SK-OV-3) of the same compound?
A: 99.8%

Q: What about the Activity [2] of the same compound?
A: 106%

Q: And the growth at 10 µM (NCI-H322M)?
A: 99.8%

Q: And the growth at 10 µM (UACC-62)?
A: 99%

Q: And the growth at 10 µM (Hs-578T)?
A: 102%

Q: And the growth at 10 µM (CAKI-1)?
A: 86.8%

Q: And the growth at 10 µM (HL-60(TB))?
A: 103%

Q: And the growth at 10 µM (HOP-92)?
A: 71.8%

Q: What about the IC50 [3] of the same compound?
A: 3.2 µM

Q: What about the IC50 [4] of the same compound?
A: > 10 µM

Q: What about the growth at 10 µM (NCI-H522) of the same compound?
A: 88.3%

Q: What about the IC50 [5] of the same compound?
A: > 10 µM

Q: What about the IC50 (Aurora kinase B) of the same compound?
A: > 10 µM

Q: O=C1C2=C(C(=O)N1O)c1cn(c3ccccc13)CCCCCCn1cc2c2ccccc21 was tested. Which IC50 (CDK9/cyclin T1) did it give?
A: > 10 µM

Q: And the growth at 10 µM (MOLT-4)?
A: 110%

Q: And the Activity [1]?
A: 48%

Q: And the growth at 10 µM (SR)?
A: 91.9%

Q: What about the growth at 10 µM (MDA-MB-435) of the same compound?
A: 111%

Q: And the growth at 10 µM (HOP-62)?
A: 107%

Q: What about the growth at 10 µM (RPMI-8226) of the same compound?
A: 92.9%

Q: And the growth at 10 µM (OVCAR-4)?
A: 113%

Q: And the growth at 10 µM (OVCAR-8)?
A: 110%

Q: And the growth at 10 µM (TK-10)?
A: 105%

Q: And the growth at 10 µM (MCF7)?
A: 99.6%

Q: And the growth at 10 µM (A549)?
A: 108%

Q: And the growth at 10 µM (SK-OV-3)?
A: 106%

Q: And the Activity [2]?
A: 108%

Q: What about the growth at 10 µM (NCI-H322M) of the same compound?
A: 108%

Q: And the growth at 10 µM (UACC-62)?
A: 100%

Q: What about the growth at 10 µM (Hs-578T) of the same compound?
A: 97.2%

Q: And the growth at 10 µM (CAKI-1)?
A: 95.7%

Q: And the growth at 10 µM (HL-60(TB))?
A: 105%

Q: What about the growth at 10 µM (HOP-92) of the same compound?
A: 79.6%

Q: And the IC50 [3]?
A: > 10 µM

Q: And the IC50 [4]?
A: > 10 µM

Q: And the growth at 10 µM (NCI-H522)?
A: 108%

Q: What about the IC50 [5] of the same compound?
A: > 10 µM

Q: And the IC50 (Aurora kinase B)?
A: > 10 µM

Q: How did the IC50 (CDK9/cyclin T1) turn out when Cn1cc(C2=C(c3cn(C)c4ccccc34)C(=O)N(O)C2=O)c2ccccc21 was run?
A: 9 µM

Q: What about the growth at 10 µM (MOLT-4) of the same compound?
A: 101%

Q: And the Activity [1]?
A: -13%

Q: What about the growth at 10 µM (SR) of the same compound?
A: 75.4%

Q: And the growth at 10 µM (MDA-MB-435)?
A: 94.9%

Q: What about the growth at 10 µM (HOP-62) of the same compound?
A: 97%

Q: And the growth at 10 µM (RPMI-8226)?
A: 79.3%

Q: What about the growth at 10 µM (OVCAR-4) of the same compound?
A: 103%

Q: What about the growth at 10 µM (OVCAR-8) of the same compound?
A: 96.5%

Q: What about the growth at 10 µM (TK-10) of the same compound?
A: 118%

Q: And the growth at 10 µM (MCF7)?
A: 86.2%

Q: What about the growth at 10 µM (A549) of the same compound?
A: 87.8%

Q: What about the growth at 10 µM (SK-OV-3) of the same compound?
A: 101%

Q: What about the Activity [2] of the same compound?
A: 100%

Q: What about the growth at 10 µM (NCI-H322M) of the same compound?
A: 103%

Q: And the growth at 10 µM (Hs-578T)?
A: 95.8%

Q: What about the growth at 10 µM (CAKI-1) of the same compound?
A: 90.1%

Q: And the growth at 10 µM (HL-60(TB))?
A: 87.1%

Q: And the growth at 10 µM (HOP-92)?
A: 80.8%

Q: What about the IC50 [3] of the same compound?
A: 3 µM

Q: What about the IC50 [4] of the same compound?
A: > 10 µM

Q: What about the growth at 10 µM (NCI-H522) of the same compound?
A: 98.4%

Q: And the IC50 [5]?
A: > 10 µM

Q: What about the IC50 (Aurora kinase B) of the same compound?
A: > 10 µM
